Measured values: ChEMBL document CHEMBL3351475, “Synthesis and anti-tumor activity of glycosyl oxadiazoles derivatives” (Bioorg Med Chem Lett, 2014)

Assays:
[1] = test system: MDA-MB-231; assay: Growth inhibition of human MDA-MB-231 cells at 100 uM after 24 hrs by MTT assay; assay type: functional; conditions: MDA-MB-231, 24 h
[2] = test system: MDA-MB-231; assay: Growth inhibition of human MDA-MB-231 cells after 24 hrs by MTT assay; assay type: functional, cell-based; conditions: MDA-MB-231, 24 h

O=C(N/N=C/c1cccc(Cl)c1)c1ccc(O[C@@H]2O[C@H](CO)[C@@H](O)[C@H](O)[C@H]2O)cc1
inhibition at 100 µM [1]: 5.02%

COc1ccc(/C=N/NC(=O)c2ccc(O[C@@H]3O[C@H](CO)[C@@H](O)[C@H](O)[C@H]3O)cc2)cc1 (stereo in doubt)
inhibition at 100 µM [1]: 11.3%

O=C(N/N=C/C1CCCCC1)c1ccc(O[C@@H]2O[C@H](CO)[C@@H](O)[C@H](O)[C@H]2O)cc1
inhibition at 100 µM [1]: 0.88%

O=C(N/N=C/c1ccc(Cl)cc1)c1ccc(O[C@@H]2O[C@H](CO)[C@@H](O)[C@H](O)[C@H]2O)cc1 (stereo in doubt)
inhibition at 100 µM [1]: 2.26%

CCCCCc1nnc(-c2ccc(O[C@@H]3O[C@H](COC(C)=O)[C@@H](OC(C)=O)[C@H](OC(C)=O)[C@H]3OC(C)=O)cc2)o1
inhibition at 100 µM [1]: 21.5%
IC50 [2]: 8340 nM

Cc1ccc(/C=N/NC(=O)c2ccc(O[C@@H]3O[C@H](CO)[C@@H](O)[C@H](O)[C@H]3O)cc2)cc1 (stereo in doubt)
inhibition at 100 µM [1]: 9.28%

CC(=O)OC[C@H]1O[C@@H](Oc2ccc(-c3nnc(-c4cccc([N+](=O)[O-])c4)o3)cc2)[C@H](OC(C)=O)[C@@H](OC(C)=O)[C@@H]1OC(C)=O
inhibition at 100 µM [1]: 40.1%
IC50 [2]: 3600 nM

CC(=O)OC[C@H]1O[C@@H](Oc2ccc(-c3nnc(-c4cccc(C#N)c4)o3)cc2)[C@H](OC(C)=O)[C@@H](OC(C)=O)[C@@H]1OC(C)=O
inhibition at 100 µM [1]: 44.1%
IC50 [2]: 1080 nM

CC(C)/C=N/NC(=O)c1ccc(O[C@@H]2O[C@H](CO)[C@@H](O)[C@H](O)[C@H]2O)cc1
inhibition at 100 µM [1]: 1.7%

CC(=O)OC[C@H]1O[C@@H](Oc2ccc(-c3nnc(-c4ccccc4)o3)cc2)[C@H](OC(C)=O)[C@@H](OC(C)=O)[C@@H]1OC(C)=O
inhibition at 100 µM [1]: 29.5%
IC50 [2]: 5970 nM

CC(=O)OC[C@H]1O[C@@H](Oc2ccc(-c3nnc(C(C)C)o3)cc2)[C@H](OC(C)=O)[C@@H](OC(C)=O)[C@@H]1OC(C)=O
inhibition at 100 µM [1]: 11.9%

COc1ccc(-c2nnc(-c3ccc(O[C@@H]4O[C@H](COC(C)=O)[C@@H](OC(C)=O)[C@H](OC(C)=O)[C@H]4OC(C)=O)cc3)o2)cc1
inhibition at 100 µM [1]: 26%
IC50 [2]: 9230 nM

CC(=O)OC[C@H]1O[C@@H](Oc2ccc(-c3nnc(-c4ccc(C)cc4)o3)cc2)[C@H](OC(C)=O)[C@@H](OC(C)=O)[C@@H]1OC(C)=O
inhibition at 100 µM [1]: 13.1%

O=C(N/N=C/c1ccccc1)c1ccc(O[C@@H]2O[C@H](CO)[C@@H](O)[C@H](O)[C@H]2O)cc1
inhibition at 100 µM [1]: 3.56%

CC(=O)OC[C@H]1O[C@@H](Oc2ccc(-c3nnc(-c4cccc(Cl)c4)o3)cc2)[C@H](OC(C)=O)[C@@H](OC(C)=O)[C@@H]1OC(C)=O
inhibition at 100 µM [1]: 36.7%
IC50 [2]: 1350 nM

O=C(N/N=C/c1cccc([N+](=O)[O-])c1)c1ccc(O[C@@H]2O[C@H](CO)[C@@H](O)[C@H](O)[C@H]2O)cc1
inhibition at 100 µM [1]: 6.23%

N#Cc1cccc(/C=N/NC(=O)c2ccc(O[C@@H]3O[C@H](CO)[C@@H](O)[C@H](O)[C@H]3O)cc2)c1
inhibition at 100 µM [1]: 6.17%

CC(=O)OC[C@H]1O[C@@H](Oc2ccc(-c3nnc(C4CCCCC4)o3)cc2)[C@H](OC(C)=O)[C@@H](OC(C)=O)[C@@H]1OC(C)=O
inhibition at 100 µM [1]: 11.6%

CCCCC/C=N/NC(=O)c1ccc(O[C@@H]2O[C@H](CO)[C@@H](O)[C@H](O)[C@H]2O)cc1
inhibition at 100 µM [1]: 11%

CC(=O)OC[C@H]1O[C@@H](Oc2ccc(-c3nnc(-c4ccc(F)cc4)o3)cc2)[C@H](OC(C)=O)[C@@H](OC(C)=O)[C@@H]1OC(C)=O
inhibition at 100 µM [1]: 54.1%
IC50 [2]: 260 nM

CC(=O)OC[C@H]1O[C@@H](Oc2ccc(-c3nnc(-c4ccc(Cl)cc4)o3)cc2)[C@H](OC(C)=O)[C@@H](OC(C)=O)[C@@H]1OC(C)=O
inhibition at 100 µM [1]: 42.1%
IC50 [2]: 890 nM

CC(=O)OC[C@H]1O[C@@H](Oc2ccc(-c3nnc(-c4ccc([N+](=O)[O-])cc4)o3)cc2)[C@H](OC(C)=O)[C@@H](OC(C)=O)[C@@H]1OC(C)=O
inhibition at 100 µM [1]: 58%
IC50 [2]: 950 nM

CN(CCOc1ccc(CC2SC(=O)NC2=O)cc1)c1ccccn1 (stereo not given) [ROSIGLITAZONE]
inhibition at 100 µM [1]: 34.2%
IC50 [2]: 5230 nM

O=C(N/N=C/c1ccc(F)cc1)c1ccc(O[C@@H]2O[C@H](CO)[C@@H](O)[C@H](O)[C@H]2O)cc1 (stereo in doubt)
inhibition at 100 µM [1]: 9.91%

O=C(N/N=C/c1ccc([N+](=O)[O-])cc1)c1ccc(O[C@@H]2O[C@H](CO)[C@@H](O)[C@H](O)[C@H]2O)cc1
inhibition at 100 µM [1]: 7.12%
